Results on one compound are retold here after US10905691B2, “Use of triazolo(4,5-d)pyrimidine derivatives for prevention and treatment of bacterial infection” (Universite de Liege, priority 2016, dated 2021).

The test system of one assay is E. faecalis (ATCC 29212). Put plainly: Growth kinetics in logarithmic phase (OD600 and viable count). Format: cell-based, Enterococcus faecalis. The note with it: 30-120 min, FIG. 3. The protocol: E. faecalis (ATCC 29212) was grown overnight in Brain heart infusion (BHI) medium, diluted 1:100 in fresh BHI, and incubated aerobically at 37° C. until bacteria growth reached a logarithmic phase (OD600=0.25-0.3).
Increasing concentrations of Triafluocyl (Cayman Chemical, Item No. 15425) or DMSO as vehicle was then added in 5 ml of bacteria suspensions. Bacterial growth was measured after different time intervals (30-120 min) by spectrophotometry (OD600) and by counting the colony-forming units after plating appropriate culture dilutions on BHI agar plates.
In FIG. 3 kinetics of E. faecalis growth in the presence of an increasing concentrations (5 μg/ml to 40 μg/ml) of Triafluocyl were measured by turbidity measurement (upper graph), and viable count (lower graph). Data represent medians±range (n=3).

In assay [1] the test system is E. faecalis (ATCC 29212) biofilm. Put plainly: Biofilm formation on polystyrene (crystal violet). It is filed as cell-based, Enterococcus faecalis. The note with it: 20 hours. How it is done: E. faecalis (ATCC 29212) was grown overnight in BHI medium, before being diluted 100 fold in fresh TSB, and incubated aerobically at 37° C. until bacteria culture reached an OD600 of 0.6 (corresponding to approximately 2-5×10^8 CFU/ml). Bacteria cultures were then diluted to 1×10^4 CFU/ml in fresh TSB. 800 μl aliquots of diluted bacteria suspensions were distributed in each well of a 24-well plate. Bacteria were allowed to adhere for 4 hours under static conditions at 37° C. After removing media, wells were rinsed 2 times with PBS to eliminate planktonic bacteria and re-filled with TSB supplemented with 0.5% glucose
Triafluocyl or DMSO as vehicle was then added at desired concentration and plates were incubated at 37° C. for 20 hours. After incubation, wells were washed and stained with 0.5% (w/v) crystal violet for 30 minutes, washed again and the dye was solubilized by adding 20% acetic acid (v/v in water) before reading absorbance at 595 nm.
E. faecalis biofilms were formed on polystyrene surface in the presence of increasing concentrations of Triafluocyl or DMSO as vehicle. In FIG. 2, Biofilm mass is presented as percentage of values obtained in the presence of DMSO (*P<0.05; **P<0.01; ***P<0.001, Triafluocyl versus DMSO, n=4).

Another assay deals with S. aureus ATCC 6538. Put plainly: MBC and MDK99.9 determination (CFU counting). Format: cell-based, Staphylococcus aureus. The protocol: Further experiments were conducted using different strains of S. aureus, as clinically relevant Gram-positive bacterial strains: ATCC 25904, ATCC 6538, methilcillin-resistant S. aureus (MRSA) ATCC BAA-1556, Glycopeptide intermediate-resistant (GISA) S. aureus Mu-50 (ATCC 700695) in order to determine the Minimal Inhibitory Concentration (MIC) which is the minimal concentration required to prevent bacterial growth; the Minimal Bactericidal Concentration (MBC) which determines the lowest concentration at which an antimicrobial agent kill a particular microorganism and a Minimum Duration for killing 99.9% bacteria (MDK99.9) which is a tolerance metric according to the EUCAST.
MBC and MDK99.9 determination: A single colony selected from the different strains of S. aureus is resuspended and cultured in the appropriate medium (TSB, or BHI) overnight (O/N) in aerobic conditions (37° C. with 220 rpm shaking), next day a 1:100 inoculum in the appropriate medium was incubated in aerobic conditions for 2 h. The culture is then challenged with triafluocyl at MIC concentration or higher concentrations. Bacterial growth was measured after different time intervals by counting the colony-forming units after plating appropriate culture dilutions on BHI agar plates. […] And the real time needed is defined as the MDK99.9. […]

≈ marks a conversion by molar mass, not a printed value.

The term MBC denotes the smallest concentration meeting the test's criterion for killing. Low values mean greater bactericidal potency, high ones weaker bactericidal potency. With `CCCSc1nc(N[C@@H]2C[C@H]2c2ccc(F)c(F)c2)c2nnn([C@@H]3C[C@H](OCCO)[C@@H](O)[C@H]3O)c2n1` [Triafluocyl, (1S,2S,3R,5S)-3-[7-[(1R,2S)-2-(3,4-difluorophenyl)cyclopropylamino]-5-(propylthio)-3H-[1,2,3]-triazolo[4,5-d]pyrimidin-3-yl]-5-(2-hydroxyethoxy)-1,2-cyclopentanediol], the “effect on bacterial growth (turbidity and viable count)” value in the assay on E. faecalis (ATCC 29212) (10 μg/ml) is listed as “able to inhibit bacterial growth”; in the assay with E. faecalis (ATCC 29212) (20 μg/ml) it was “potent bactericidal effects”; in the assay with E. faecalis (ATCC 29212) (40 μg/ml) it was “potent bactericidal effects”. For the same compound, the “E. faecalis biofilm formation” value was “no biofilm could form” in assay [1] (40 μg/ml, polystyrene surface) and “significantly reduces” in assay [1] (starting concentration of 10 μg/ml, versus DMSO). Besides, in the assay with S. aureus ATCC 6538, the “MDK 99.9 Time (h) needed to kill 99.9% of the started inoculum” value amounted to 6 h. In the assay with S. aureus ATCC 6538 (Staphylococcus aureus, ATCC6538, cut-off 99.9% reduction in CFU), this compound registered an MBC of 20 µg/mL (≈ 38.3 µM).
